{"source": "paper PMC4985813", "about": "“Binding site elucidation and structure guided design of macrocyclic IL-17A antagonists” (Scientific Reports, 2016)", "key": {"IL-17F homodimer": {"molecular_target": "T1, IL-17F homodimer (Homo sapiens, UniProt Q96PD4)", "T1 construct": "purchased R&D Systems, Minneapolis, MN", "T1 sequence (Q96PD4 31-163)": "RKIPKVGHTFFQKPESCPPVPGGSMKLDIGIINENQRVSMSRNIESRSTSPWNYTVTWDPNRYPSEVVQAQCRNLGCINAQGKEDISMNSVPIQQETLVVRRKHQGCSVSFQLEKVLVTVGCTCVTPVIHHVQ", "assay": "SPR selectivity binding, immobilized IL-17F", "conditions": "for binding to IL-17F (SPR): concentrations up to 13.3 μM", "experimental": "(§1) The IL-17 SPR binding assay was run on a Biacore 3000 SPR instrument (GE Healthcare). Biotinylated Bap-tagged human IL-17A[23], was captured on a Biacore Streptavidin chip to achieve a protein density of 2500–3500 RUs on the surface. The SPR running buffer was 10 mM HEPES, pH 7.4, 150 mM NaCl, 0.01% P20 with 3% DMSO. Compound samples were injected at a flow rate of 50 μL/min for 180 s association and followed by running buffer for at least 600 s to detect dissociation. Compound concentrations were varied across a 2–3 fold dilution series. Each concentration was tested at least in duplicate. When compounds were tested in the presence of HAP, the running buffer contained 50 nM of HAP and all samples were prepared in the running buffer. Multiple blank injections were run before and after each compound series for references. The data were processed and analyzed with Scrubber 2.0 (BioLogical Software) and Biaeval software (GE Healthcare) to calculate the binding constants along with on- and off-rates.\n(§2) Biotinylated BAP-tagged IL-17RA ECD[17] and chemically biotinylated IL-17F (R&D Systems, Minneapolis, MN) were separately immobilized on Biacore Streptavidin chips to permit selectivity testing of compounds. The binding experiments were carried out as described above."}, "[1]": {"test_system": "IL-17A-stimulated human keratinocytes", "assay": "Primary human keratinocytes cell assay, IL-8 production stimulated by IL-17A and TNF-α", "type": "cell-based", "conditions": "for IC50: Homo sapiens, Keratinocyte", "experimental": "(§3) Primary human keratinocytes were cultured in Epilife medium with EDGS (Life Technology, Cascade Biologics) following product instructions. 5 days after establishing the culture from frozen vials, cells were plated at 10,000/well (80 μL) in culture media in 384-well plates. 4 h after plating, 10 μL of 10× compound stocks were added. Final DMSO concentration was 1%. Immediately after compound addition, 10 μL of a mixture of recombinant human IL-17A (R&D System, Minneapolis, MN) (5 ng/mL final) and TNF-α (Sigma-Aldrich, St Louis, MO) (10 ng/mL final), or TNF-α alone (10 ng/mL) were added to the cells. Cell assay plates were incubated for 48 h at 37 °C in a tissue culture incubator. Culture supernatants were harvested for analysis of IL-8 production using kit K211ANB-2 (Meso Scale Discovery, Rockville, MD)."}, "IL-17RA": {"molecular_target": "T2, IL-17RA (Homo sapiens, UniProt Q96F46)", "T2 construct": "Biotinylated BAP-tagged IL-17RA ECD[17]", "T2 sequence (Q96F46 33-320 limits assumed)": "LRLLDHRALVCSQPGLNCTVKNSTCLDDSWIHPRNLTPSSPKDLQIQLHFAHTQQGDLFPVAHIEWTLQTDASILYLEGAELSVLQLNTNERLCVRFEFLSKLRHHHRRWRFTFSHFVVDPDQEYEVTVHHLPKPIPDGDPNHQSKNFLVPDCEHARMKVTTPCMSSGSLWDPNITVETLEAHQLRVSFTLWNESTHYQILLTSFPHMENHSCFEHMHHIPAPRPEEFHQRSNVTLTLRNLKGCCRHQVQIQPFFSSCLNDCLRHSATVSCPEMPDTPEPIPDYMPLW", "assay": "SPR selectivity binding, immobilized IL-17RA ECD", "experimental": "as §1, §2"}, "[2]": {"molecular_target": "T3, IL-17A/IL-17RA interaction (Homo sapiens, UniProt Q16552)", "T3 construct": "purchased R&D Systems (IL-17RA-Fc only)", "T3 sequence (Q16552 24-155)": "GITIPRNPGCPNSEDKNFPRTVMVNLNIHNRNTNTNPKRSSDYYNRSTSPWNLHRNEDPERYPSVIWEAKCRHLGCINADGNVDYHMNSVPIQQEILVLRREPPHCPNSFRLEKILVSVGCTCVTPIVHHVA", "assay": "FRET assay of IL-17A/IL-17RA interaction", "type": "biochemical", "experimental": "Maximal FRET was observed when IL-17A was bound to IL-17RA and diminished FRET was observed when IL-17A was separated from IL-17RA. […] Compounds were tested using a half-log dilution series of 11 concentrations. The IL-17A was incubated with the Europium-Streptavidin to 1.5X final assay concentration for 1 h at room temperature. Compounds were prepared at 50X final concentration in 100% DMSO and 300 nL were added to a 384-well white assay plate (Greiner). 10 μL of the Europium labeled IL-17A was added to the compounds and incubated at room temperature for 1 h. […] The plates were covered and incubated at room temperature for 3 h. The FRET signal of the IL-17A/IL-17RA interaction was measured using an EnVision Multilabel plate reader (PerkinElmer). […] A four-parameter logistic nonlinear regression model using the percent inhibition at each concentration was used to calculate an IC50 for each compound."}, "[3]": {"test_system": "keratinocytes stimulated by TNF-α alone", "assay": "Primary human keratinocytes cell assay, baseline IL-8 production stimulated by TNF-α alone", "type": "cell-based", "conditions": "Keratinocyte, TNF-α 10 ng/mL alone", "experimental": "as §3"}, "human IL-17A": {"molecular_target": "human IL-17A (Homo sapiens, UniProt Q16552)", "sequence (Q16552 24-155)": "as above", "assay": "SPR binding assay, immobilized IL-17A", "experimental": "as §1, with “When compounds were tested in the presence of HAP, the running buffer contained 50 nM of HAP and all samples were prepared in the running buffer.” left out"}, "[4]": {"molecular_target": "T4, full-length recombinant IL-17A (Homo sapiens, UniProt Q16552)", "T4 construct": "made in house", "T4 sequence (Q16552 24-155)": "as above", "assay": "Covalent labeling of IL-17A with sulfonyl fluoride probe (pull-down, protein mass analysis, peptide mapping)", "type": "biochemical", "experimental": "Human recombinant IL-17A expressed in E. coli (5 μM) was incubated with and without compound 4 (50 μM) for 20 h at 37 °C in Dulbecco’s phosphate-buffered saline solution. To analyze cytokine homodimer, 10 μL of each sample was subjected to LC-MS using an Acquity class H UPLC (Waters) interfaced to a Xevo G2–S Q-Tof mass spectrometer (Waters). Chromatography was performed on a 2.1 × 100 mm Acquity BEH 300 Å C4 column (1.7 μm silica) (Waters) at 40 °C using the following gradient: 5% B/1 min, 5–85% B/10 min at 0.4 mL/min. Solvents: A, 0.05% formic acid in water; B, 0.05% formic acid in acetonitrile. […]\n100 μL of each reaction sample was treated with three volumes of acetone at −20 °C for 2 h, after which the mixture was centrifuged at 14,000 × g for 10 min. […] Each digest was next treated with 4.5 mM DTT for 15 min at 37 °C, and 8 μL of each digest was analyzed on an Agilent Model 1100 HPLC system interfaced with a LTQ Orbitrap XL mass spectrometer (Thermo). […]\n0.5 μM full length IL-17A (R&D Systems) was pre-incubated with DMSO or 50 μM a control compound in PBS at room temperature for 30 min, after which 5 μM sulfonyl fluoride probe compound 4 was added to the protein mixture (final sample volume 50 μl) and incubated for 1 h. […] Eluates were separated on a 12% NuPAGE Bis-Tris gel, transferred to a PVDF membrane, and then analyzed by immunoblot (anti-IL17A antibody from R&D Systems)."}}, "note": "Where “and” joins values, the source holds several entries; their conditions need not be identical. Equal values may be shown once. Entries after “also recorded” stand apart in the source; their conditions may differ. Read-outs that look alike come from different tables or passages of the source."}
{"smiles": "CN(C)C(=O)CC1(CC(=O)NCCc2ccc(NC(=O)[C@H](Cc3ccccc3F)NC(=O)c3ccnn3C)cc2)CCCC1", "note": "[Compound 1]", "values": [{"measurement": "binding to IL-17F homodimer (SPR)", "setting": "IL-17F homodimer; concentrations up to 40 μM", "value": "no measurable binding; also recorded: did not show any measurable binding"}, {"measurement": "modulation of IL-8 production in IL-17A-stimulated human keratinocytes", "setting": "[1]; in the presence of TNF-α", "value": "insufficient to modulate"}, {"measurement": "binding to IL-17RA (SPR)", "setting": "IL-17RA; concentrations up to 40 μM", "value": "no measurable binding; also recorded: did not show measurable binding"}]}
{"smiles": "CNC(=O)[C@H]1Cc2ccc(cc2)NC(=O)[C@@H](NC(=O)c2ccnn2C)Cc2cc(ccc2Cl)Oc2ccc(cc2)C2(CCCC2)CC(=O)N1", "note": "[Compound 2]", "values": [{"measurement": "IC50", "setting": "[2]", "value": "< 35 nM and 34 nM"}, {"measurement": "binding to IL-17F (SPR)", "setting": "IL-17F homodimer", "value": "did not show measurable binding"}, {"measurement": "IC50", "setting": "[1]; IL-17A 5 ng/mL and TNF-α 10 ng/mL, 48 h, read-out: Keratinocyte IC50 (IL-8)", "value": 537, "unit": "nM"}, {"measurement": "IC50", "setting": "[1]; read-out: IC50, IL-17A-stimulated production of IL-8 in keratinocytes", "value": "< 540", "unit": "nM"}, {"measurement": "IC50", "setting": "[3]", "value": "> 30000", "unit": "nM"}, {"measurement": "binding to IL-17RA (SPR)", "setting": "IL-17RA; concentrations up to 13.3 μM", "value": "did not show measurable binding"}, {"measurement": "Kd", "setting": "human IL-17A; read-out: IL-17A SPR KD", "value": 199, "unit": "nM"}, {"measurement": "Kd", "setting": "human IL-17A; read-out: SPR KD", "value": "< 200", "unit": "nM"}]}
{"smiles": "CNC(=O)[C@H]1Cc2ccc(cc2)NC(=O)C(NC(=O)c2ccnn2C)Cc2cc(ccc2Cl)-c2cccc(c2)CCC(=O)N1", "note": "(some centres unmarked) [Compound 3]", "values": [{"measurement": "binding to IL-17F (SPR)", "setting": "IL-17F homodimer", "value": "no measurable binding; also recorded: did not show measurable binding"}, {"measurement": "IC50", "setting": "[3]", "value": "> 30000", "unit": "nM"}, {"measurement": "binding to IL-17RA (SPR)", "setting": "IL-17RA; concentrations up to 13.3 μM", "value": "no measurable binding; also recorded: did not show measurable binding"}]}
{"smiles": "C#CCNC(=O)[C@@H](Cc1ccc(NC(=O)[C@H](Cc2ccccc2F)NC(=O)c2ccnn2C)cc1)NC(=O)CC1(CC(=O)Nc2cccc(S(=O)(=O)F)c2)CCCC1", "note": "[Compound 4]", "values": [{"measurement": "IC50", "setting": "[2]", "value": 200, "unit": "nM"}, {"measurement": "covalent labeling of IL-17A", "setting": "[4]; in the absence of HAP", "value": "covalently labeled"}, {"measurement": "principal site of modification of IL-17A", "setting": "[4]; peptide mapping", "value": "Tyr85"}]}
